Test results taken from the supplement of paper PMC10627819.

How the values were obtained:
S. aureus DSM 20231 = assay: Bliss interaction score (quartile over a dose matrix) (fitness difference); higher = more antagonism (negative = synergy)
Method in brief: (§1)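 Values were capped at 1 after dividing OD595 at stationary-phase entry by the plate's robust no-drug mean. This ratio is fitness, and single-drug fitness was inferred from the combination data. The Bliss score is observed minus product-expected fitness, given as quartiles over technical, biological and donor/recipient replicates.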

S. pneumoniae D39V [1] = assay: as above
Method in brief: as §1

B. subtilis 168 = assay: as above
Method in brief: as §1

S. aureus Newman [2] = assay: as above
Method in brief: as §1

S. pneumoniae D39V [3] = assay: fitness (endpoint OD595 vs no drug) (fraction); higher = more growth
Method in brief: (§2)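 In 384-well plates at 37 °C, cultures began at OD595 0.01 in 30 µl, with 55 µl used for S. pneumoniae. OD595 readings every 30 min for 14 h were corrected by the first reading. Fitness divides the stationary-phase transition optical density by the robust mean of no-drug control wells. The result is capped at 1.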

S. aureus Newman [4] = assay: as above
Method in brief: as §2
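Wherever Bliss interaction score (quartile over a dose matrix) is given: first quartile when negative (synergy) and third quartile when positive (antagonism).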

CCC[C@@H]1C[C@@H](C(=O)N[C@@H]([C@H]2O[C@H](SC)[C@H](O)[C@@H](O)[C@H]2O)[C@H](C)Cl)N(C)C1 [Clindamycin] + C/C(=C\C(=O)OCCCCCCCCC(=O)O)C[C@@H]1OC[C@H](C[C@@H]2O[C@H]2[C@@H](C)[C@H](C)O)[C@@H](O)[C@H]1O [Pseudomonic acid]
Settings | Bliss interaction score
B. subtilis 168 | 0.0726
S. aureus DSM 20231 | 0.0297
S. aureus Newman [2] | 0.0412
S. pneumoniae D39V [1] | -0.15

fitness, S. pneumoniae D39V [3]
Settings | first compound 0.0125 µg/mL | first compound 0.015 µg/mL | first compound 0.025 µg/mL | first compound 0.03 µg/mL | first compound 0.05 µg/mL | first compound 0.06 µg/mL
partner 0.03 µg/mL | 0.78 | 0.836 | 0.499 | 0.703 | 0.211 | –
partner 0.06 µg/mL | 0.716 | 0.69 | 0.4 | – | 0.17 | 0.281
partner 0.12 µg/mL | 0.237 | 0.326 | 0.119 | 0.229 | 0.0924 | 0.16

fitness, S. aureus Newman [4], one replicate
Settings | first compound 0.0312 µg/mL | first compound 0.0625 µg/mL | first compound 0.125 µg/mL
partner 0.0313 µg/mL | 0.0504 | 0.0504 | 0.0456
partner 0.0625 µg/mL | 0.046 | 0.0445 | 0.0496
partner 0.125 µg/mL | 0.0438 | 0.0538 | 0.0533

C/C(=C\C(=O)OCCCCCCCCC(=O)O)C[C@@H]1OC[C@H](C[C@@H]2O[C@H]2[C@@H](C)[C@H](C)O)[C@@H](O)[C@H]1O [Pseudomonic acid] + CN1C2=CC=CC=C2N=C3C1=CC=CC3=O [Pyocyanin]
Settings | Bliss interaction score
B. subtilis 168 | -0.0558
S. aureus DSM 20231 | 0.0163
S. aureus Newman [2] | 0.0185
S. pneumoniae D39V [1] | -0.0764

fitness, S. pneumoniae D39V [3]
Settings | first compound 0.03 µg/mL | first compound 0.06 µg/mL | first compound 0.12 µg/mL
partner 0.325 µg/mL | 0.955 | 0.849 | 0.611
partner 0.65 µg/mL | 0.932 | 0.843 | 0.554
partner 1.3 µg/mL | – | 0.55 | 0.395

fitness, S. aureus Newman [4], one replicate
Settings | first compound 0.0313 µg/mL | first compound 0.0625 µg/mL | first compound 0.125 µg/mL
partner 1.25 µg/mL | 0.0664 | 0.0399 | 0.0453
partner 2.5 µg/mL | 0.0672 | 0.0381 | 0.0514
partner 5 µg/mL | 0.0481 | 0.0417 | 0.057

C/C(=C\C(=O)OCCCCCCCCC(=O)O)C[C@@H]1OC[C@H](C[C@@H]2O[C@H]2[C@@H](C)[C@H](C)O)[C@@H](O)[C@H]1O [Pseudomonic acid] + CN(C)c1cc(NC(=O)CNC(C)(C)C)c(O)c2c1C[C@H]1C[C@H]3[C@H](N(C)C)C(O)=C(C(N)=O)C(=O)[C@@]3(O)C(O)=C1C2=O [Tigecycline]
Settings | Bliss interaction score
B. subtilis 168 | 0.07
S. aureus DSM 20231 | 0.006
S. aureus Newman [2] | -0.0182
S. pneumoniae D39V [1] | -0.124

fitness, S. pneumoniae D39V [3]
Settings | first compound 0.03 µg/mL | first compound 0.06 µg/mL | first compound 0.12 µg/mL
partner 0.65 µg/mL | 0.872 | 0.739 | 0.575
partner 1.3 µg/mL | 0.923 | 0.747 | 0.612
partner 2.6 µg/mL | 0.879 | 0.752 | 0.59

fitness, S. aureus Newman [4], one replicate
Settings | first compound 0.0313 µg/mL | first compound 0.0625 µg/mL | first compound 0.125 µg/mL
partner 0.039 µg/mL | 0.0303 | 0.0332 | 0.029
partner 0.078 µg/mL | 0.0326 | 0.0257 | 0.0238
partner 0.156 µg/mL | 0.0698 | 0.0522 | 0.0728

C/C(=C\C(=O)OCCCCCCCCC(=O)O)C[C@@H]1OC[C@H](C[C@@H]2O[C@H]2[C@@H](C)[C@H](C)O)[C@@H](O)[C@H]1O [Pseudomonic acid] + CN[C@@H]1[C@H](O[C@H]2[C@H](O[C@H]3[C@H](O)[C@@H](O)[C@H](N=C(N)N)[C@@H](O)[C@@H]3N=C(N)N)O[C@@H](C)[C@]2(O)C=O)O[C@@H](CO)[C@H](O)[C@H]1O [Streptomycin]
Settings | Bliss interaction score
B. subtilis 168 | 0.0523
S. aureus DSM 20231 | -0.013
S. aureus Newman [2] | -0.0275
S. pneumoniae D39V [1] | -0.178

fitness, S. pneumoniae D39V [3]
Settings | first compound 0.03 µg/mL | first compound 0.06 µg/mL | first compound 0.12 µg/mL
partner 2 µg/mL | 0.897 | 0.719 | 0.52
partner 4 µg/mL | 0.903 | 0.708 | 0.491
partner 8 µg/mL | 0.699 | 0.565 | 0.384

fitness, one replicate
Settings | first compound 0.03 µg/mL | first compound 0.0313 µg/mL | first compound 0.06 µg/mL | first compound 0.0625 µg/mL | first compound 0.12 µg/mL | first compound 0.125 µg/mL
S. aureus Newman [4], partner 2 µg/mL | – | 0.0148 | – | 0.0368 | – | 0.0312
S. aureus Newman [4], partner 4 µg/mL | – | 0.0183 | – | 0.0224 | – | 0.0173
S. aureus Newman [4], partner 8 µg/mL | – | 0.0145 | – | 0.0198 | – | 0.0269
S. pneumoniae D39V [3], partner 16 µg/mL | 0.545 | – | 0.439 | – | 0.238 | –

O=C(N[C@H](CO)[C@H](O)c1ccc([N+](=O)[O-])cc1)C(Cl)Cl [Chloramphenicol] + CN(C)c1cc(NC(=O)CNC(C)(C)C)c(O)c2c1C[C@H]1C[C@H]3[C@H](N(C)C)C(O)=C(C(N)=O)C(=O)[C@@]3(O)C(O)=C1C2=O [Tigecycline]
Settings | Bliss interaction score
B. subtilis 168 | -0.0487
S. aureus DSM 20231 | -0.0788
S. aureus Newman [2] | -0.0583
S. pneumoniae D39V [1] | -0.114

fitness, S. aureus Newman [4]
Settings | first compound 0.75 µg/mL | first compound 1.5 µg/mL | first compound 3 µg/mL
partner 0.039 µg/mL | 0.789 | 0.509 | 0.216
partner 0.078 µg/mL | 0.831 | 0.559 | 0.2
partner 0.156 µg/mL | 0.829 | 0.58 | 0.213
